# From ChEMBL document CHEMBL1949542, “Reductive activation of 5-fluorodeoxyuridine prodrug possessing azide methyl group by hypoxic X-irradiation” (Bioorg Med Chem Lett, 2012)
# Activity calls are given as the source filed them. The calls are words filed in the database; no cut-off is given here.
# Experiments:
# Assay type in all cases: functional, cell-based
# [1] = tested on: A549; assay: Cytotoxicity against human A549 cells assessed as cell viability after 72 hrs by WST-8 assay; conditions: A549, 72 h
# [2] = tested on: A549; assay: Cytotoxicity against human A549 cells assessed as cell viability at 200 nM compound X-irradiated under aerobic conditions measured after 72 hrs by WST-8 assay
# [3] = tested on: A549; assay: Cytocidal activity against human A549 cells assessed as cell viability at 200 nM compound X-irradiated under hypoxic conditions measured after 72 hrs by WST-8 assay
# [4] = tested on: A549; assay: Cytotoxicity against human A549 cells assessed as cell viability under hypoxic condition at 100 nM after 72 hrs by WST-8 assay
SMILES,IC50 [1],Activity [2],Activity [3],Activity [4]
O=c1[nH]c(=O)n([C@H]2C[C@H](O)[C@@H](CO)O2)cc1F [FLOXURIDINE],47 nM,–,–,–
[N-]=[N+]=NCn1c(=O)c(F)cn([C@H]2C[C@H](O)[C@@H](CO)O2)c1=O,1470 nM,inactive,inactive,inactive
